Source: ChEMBL document CHEMBL1136561, “Thiophene-based vitronectin receptor antagonists” (Bioorg Med Chem Lett, 2003)

What was measured:
[1] = molecular target: T1, Integrin alpha-V/beta-3 (Homo sapiens, UniProt P05106+P06756); assay: Inhibition of fibrinogen binding to integrin alphaV-beta3 receptor; type: protein-complex assay
[2] = molecular target: Integrin alpha-5/beta-1 (Homo sapiens, UniProt P05556+P08648); assay: Inhibition of fibronectin binding to K562 cells expressing integrin alpha5-beta1
[3] = organism: Gallus gallus; assay: Inhibition of VEGF-mediated angiogenesis in the chick CAM assay expressed as capillary formation at 17 ug/mesh conc.; type: functional
[4] = molecular target: Integrin alpha-V/beta-3 and alpha-IIb/beta 3 (Homo sapiens) (UniProt P05106+P06756+P08514); assay: Selectivity ratio for alphaIIb-beta3 over alphaV-beta3 integrins; type: protein assay
[5] = organism: Gallus gallus; assay: Inhibition of VEGF-mediated angiogenesis in the chick CAM assay expressed as capillary formation at 3 ug/mesh conc.; type: functional
[6] = molecular target: Integrin alpha-IIb/beta-3 (Homo sapiens, UniProt P05106+P08514); assay: Inhibition of fibrinogen binding to integrin alphaIIb-beta3; type: protein-complex assay
[7] = molecular target: T1, Integrin alpha-V/beta-3; assay: Inhibition of fibrinogen binding to K562 cells expressing integrin alphaV-beta3; type: cell-based
[8] = organism: Gallus gallus; assay: Inhibition of VEGF-mediated angiogenesis in the chick CAM assay expressed as capillary formation at 33 ug/mesh conc.; type: functional
[9] = organism: Homo sapiens; assay: Selectivity ratio for alphaV-beta5 over alphaV-beta3 integrins
[10] = molecular target: Fibronectin receptor (Integrin alpha-5/beta-1 and alpha-V/beta-3) (Homo sapiens) (UniProt P05106+P05556+P06756+P08648); assay: Selectivity ratio for alpha5-beta1 and alphaV-beta3 integrins; type: protein-complex assay
[11] = molecular target: Integrin alpha-V/beta-5 (Homo sapiens, UniProt P06756+P18084); assay: Inhibition of vitronectin binding to HT-29 cells expressing integrin alphaV-beta5; type: cell-based

Sequence of Integrin alpha-IIb/beta-3 (P05106 27-788 limits assumed): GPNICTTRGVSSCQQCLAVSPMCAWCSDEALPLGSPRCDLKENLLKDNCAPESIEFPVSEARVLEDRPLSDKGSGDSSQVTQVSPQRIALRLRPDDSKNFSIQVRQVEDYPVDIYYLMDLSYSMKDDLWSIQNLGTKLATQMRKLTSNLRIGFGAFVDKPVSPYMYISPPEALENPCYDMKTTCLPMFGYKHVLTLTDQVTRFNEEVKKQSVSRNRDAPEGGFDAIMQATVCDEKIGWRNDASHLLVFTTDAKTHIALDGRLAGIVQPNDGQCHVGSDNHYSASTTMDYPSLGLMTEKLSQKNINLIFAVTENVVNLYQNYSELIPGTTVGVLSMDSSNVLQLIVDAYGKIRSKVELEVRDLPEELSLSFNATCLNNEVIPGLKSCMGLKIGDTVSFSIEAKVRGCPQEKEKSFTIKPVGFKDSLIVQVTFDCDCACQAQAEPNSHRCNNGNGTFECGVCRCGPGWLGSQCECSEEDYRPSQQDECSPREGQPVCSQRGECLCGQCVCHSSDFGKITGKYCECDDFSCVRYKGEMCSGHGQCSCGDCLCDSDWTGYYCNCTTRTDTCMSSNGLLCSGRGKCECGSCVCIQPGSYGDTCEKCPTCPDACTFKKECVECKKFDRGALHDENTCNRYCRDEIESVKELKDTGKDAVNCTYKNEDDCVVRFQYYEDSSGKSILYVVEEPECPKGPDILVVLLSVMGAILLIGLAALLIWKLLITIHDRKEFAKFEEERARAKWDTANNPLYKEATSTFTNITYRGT
Sequence of Integrin alpha-IIb/beta-3 (P08514 32-887 limits assumed): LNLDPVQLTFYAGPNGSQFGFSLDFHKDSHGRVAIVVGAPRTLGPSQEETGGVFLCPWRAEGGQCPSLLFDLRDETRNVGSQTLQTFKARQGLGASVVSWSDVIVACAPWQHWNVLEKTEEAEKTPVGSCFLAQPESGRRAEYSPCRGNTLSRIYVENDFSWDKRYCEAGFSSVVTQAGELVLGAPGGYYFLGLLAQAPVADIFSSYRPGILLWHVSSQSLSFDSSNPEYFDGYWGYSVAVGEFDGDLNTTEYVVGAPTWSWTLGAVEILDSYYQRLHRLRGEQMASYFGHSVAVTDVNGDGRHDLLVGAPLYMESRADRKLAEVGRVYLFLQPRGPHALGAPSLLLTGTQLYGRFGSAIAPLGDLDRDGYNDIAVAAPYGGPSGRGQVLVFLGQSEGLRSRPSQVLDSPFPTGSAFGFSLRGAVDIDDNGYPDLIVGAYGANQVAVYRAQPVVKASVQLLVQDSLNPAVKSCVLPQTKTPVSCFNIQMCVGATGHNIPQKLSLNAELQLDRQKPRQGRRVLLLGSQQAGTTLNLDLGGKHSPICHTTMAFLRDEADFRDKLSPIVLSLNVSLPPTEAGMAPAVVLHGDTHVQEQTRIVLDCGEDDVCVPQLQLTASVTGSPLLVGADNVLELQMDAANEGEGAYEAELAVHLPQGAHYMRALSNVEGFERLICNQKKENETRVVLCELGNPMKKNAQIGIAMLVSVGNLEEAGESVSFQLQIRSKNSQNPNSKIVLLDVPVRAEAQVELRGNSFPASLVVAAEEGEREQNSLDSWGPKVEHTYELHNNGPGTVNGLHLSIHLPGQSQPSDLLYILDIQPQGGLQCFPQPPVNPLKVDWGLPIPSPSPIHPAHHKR
Sequence of Integrin alpha-IIb/beta-3 (P08514 891-1039 limits assumed): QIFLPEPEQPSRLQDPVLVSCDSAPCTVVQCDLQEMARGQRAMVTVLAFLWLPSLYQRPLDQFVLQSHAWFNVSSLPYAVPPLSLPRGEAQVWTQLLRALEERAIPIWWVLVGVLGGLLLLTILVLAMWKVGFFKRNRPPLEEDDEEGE
T1 sequence (P05106 27-788 limits assumed): as the sequence (P05106 27-788 limits assumed) above
T1 sequence (P06756 31-889 limits assumed): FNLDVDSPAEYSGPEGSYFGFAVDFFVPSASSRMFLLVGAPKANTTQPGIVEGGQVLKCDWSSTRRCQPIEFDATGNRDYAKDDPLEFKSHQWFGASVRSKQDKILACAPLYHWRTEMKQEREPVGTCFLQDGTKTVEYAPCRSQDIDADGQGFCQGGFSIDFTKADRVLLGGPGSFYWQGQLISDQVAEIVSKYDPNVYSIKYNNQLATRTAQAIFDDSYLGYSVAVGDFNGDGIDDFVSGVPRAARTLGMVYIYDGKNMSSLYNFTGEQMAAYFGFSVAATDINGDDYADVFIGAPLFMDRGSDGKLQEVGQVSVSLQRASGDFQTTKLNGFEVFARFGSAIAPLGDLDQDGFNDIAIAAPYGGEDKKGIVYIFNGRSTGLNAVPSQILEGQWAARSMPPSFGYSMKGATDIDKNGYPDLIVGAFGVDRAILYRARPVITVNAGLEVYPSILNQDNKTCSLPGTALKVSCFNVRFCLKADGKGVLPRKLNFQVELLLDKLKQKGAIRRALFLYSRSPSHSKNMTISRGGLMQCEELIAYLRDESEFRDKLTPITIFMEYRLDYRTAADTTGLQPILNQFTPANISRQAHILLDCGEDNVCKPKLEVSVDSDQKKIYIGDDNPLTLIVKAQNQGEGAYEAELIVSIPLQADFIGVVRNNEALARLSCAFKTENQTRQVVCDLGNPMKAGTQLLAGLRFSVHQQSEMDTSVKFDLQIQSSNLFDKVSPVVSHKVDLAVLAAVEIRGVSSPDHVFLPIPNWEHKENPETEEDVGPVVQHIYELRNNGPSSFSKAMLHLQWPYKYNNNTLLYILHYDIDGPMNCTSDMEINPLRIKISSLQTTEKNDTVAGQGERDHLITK
T1 sequence (P06756 891-1048 limits assumed): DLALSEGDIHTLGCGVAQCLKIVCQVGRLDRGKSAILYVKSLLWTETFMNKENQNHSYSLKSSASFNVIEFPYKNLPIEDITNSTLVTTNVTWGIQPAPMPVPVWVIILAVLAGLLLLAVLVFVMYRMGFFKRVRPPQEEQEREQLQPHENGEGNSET
Sequence of Integrin alpha-5/beta-1 (P05556 21-798 limits assumed): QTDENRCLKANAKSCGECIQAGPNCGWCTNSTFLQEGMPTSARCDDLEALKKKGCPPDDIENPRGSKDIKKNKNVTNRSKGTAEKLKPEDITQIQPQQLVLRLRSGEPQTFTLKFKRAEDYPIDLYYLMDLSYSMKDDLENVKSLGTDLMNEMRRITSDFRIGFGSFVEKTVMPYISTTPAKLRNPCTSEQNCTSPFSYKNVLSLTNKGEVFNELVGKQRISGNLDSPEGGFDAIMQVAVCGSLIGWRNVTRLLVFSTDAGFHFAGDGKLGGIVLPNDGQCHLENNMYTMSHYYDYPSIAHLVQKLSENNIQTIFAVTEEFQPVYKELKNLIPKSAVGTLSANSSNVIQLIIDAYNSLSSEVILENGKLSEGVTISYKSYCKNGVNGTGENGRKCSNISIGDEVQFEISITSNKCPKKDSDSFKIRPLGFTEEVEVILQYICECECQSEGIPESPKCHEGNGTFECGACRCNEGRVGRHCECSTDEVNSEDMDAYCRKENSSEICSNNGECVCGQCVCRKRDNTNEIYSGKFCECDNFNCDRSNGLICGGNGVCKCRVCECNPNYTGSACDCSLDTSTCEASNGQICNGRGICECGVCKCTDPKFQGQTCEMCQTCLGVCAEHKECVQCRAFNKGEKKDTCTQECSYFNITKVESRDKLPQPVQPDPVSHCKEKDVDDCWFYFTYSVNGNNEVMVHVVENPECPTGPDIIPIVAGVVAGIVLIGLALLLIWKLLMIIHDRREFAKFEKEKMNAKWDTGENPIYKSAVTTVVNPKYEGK
Sequence of Integrin alpha-5/beta-1 (P08648 42-894 limits assumed): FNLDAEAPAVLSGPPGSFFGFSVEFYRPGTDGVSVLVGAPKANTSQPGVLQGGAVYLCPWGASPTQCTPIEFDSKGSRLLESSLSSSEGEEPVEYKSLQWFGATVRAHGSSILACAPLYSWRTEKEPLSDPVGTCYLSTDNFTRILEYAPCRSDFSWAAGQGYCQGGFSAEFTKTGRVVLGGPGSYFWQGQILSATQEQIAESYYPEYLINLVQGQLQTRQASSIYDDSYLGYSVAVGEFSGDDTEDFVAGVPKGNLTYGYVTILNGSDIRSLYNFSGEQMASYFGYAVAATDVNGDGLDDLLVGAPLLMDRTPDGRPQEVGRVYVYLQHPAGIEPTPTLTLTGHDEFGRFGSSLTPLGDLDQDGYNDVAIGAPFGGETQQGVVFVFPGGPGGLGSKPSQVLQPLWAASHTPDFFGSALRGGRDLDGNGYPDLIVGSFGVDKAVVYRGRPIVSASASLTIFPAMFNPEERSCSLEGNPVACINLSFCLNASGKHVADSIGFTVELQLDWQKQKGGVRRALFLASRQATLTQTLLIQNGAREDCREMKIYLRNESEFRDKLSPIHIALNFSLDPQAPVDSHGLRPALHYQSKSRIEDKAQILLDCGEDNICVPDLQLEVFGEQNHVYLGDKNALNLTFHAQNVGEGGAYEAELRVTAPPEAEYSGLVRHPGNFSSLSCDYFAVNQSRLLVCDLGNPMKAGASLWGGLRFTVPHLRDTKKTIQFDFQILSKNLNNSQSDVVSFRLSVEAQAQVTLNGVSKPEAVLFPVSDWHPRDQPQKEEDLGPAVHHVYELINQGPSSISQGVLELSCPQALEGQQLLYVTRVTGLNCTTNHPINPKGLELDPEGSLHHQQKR
Sequence of Integrin alpha-5/beta-1 (P08648 895-1049 limits assumed): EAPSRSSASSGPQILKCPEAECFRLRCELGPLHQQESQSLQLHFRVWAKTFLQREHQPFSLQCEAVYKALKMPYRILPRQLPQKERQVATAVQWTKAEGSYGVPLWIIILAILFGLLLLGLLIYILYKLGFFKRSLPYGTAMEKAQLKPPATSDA

Row | SMILES | IC50 [1] | IC50 [2] | Inhibition [3] | Ratio [4] | Inhibition [5] | IC50 [6] | IC50 [7] | Inhibition [8] | Ratio [9] | Ratio [10] | IC50 [11]
1 | N=C(N)Nc1cccc(-c2ccc(C(=O)NC[C@H](NS(=O)(=O)c3ccccc3)C(=O)O)s2)c1.O=C(O)C(F)(F)F | 1 nM | 95 nM | 66% | 3 | 29% | 0.59 nM | 0.19 nM | 98% | 33 | 500 | 
2 | N=C(N)Nc1ccccc1-c1ccc(C(=O)NC[C@H](NS(=O)(=O)c2ccccc2)C(=O)O)s1 | 5500 nM |  |  | < 0.1 |  | 0.25 nM | 5330 nM |  |  |  | 
3 | N=C(N)NCc1cccc(-c2ccc(C(=O)NC[C@H](NS(=O)(=O)c3ccccc3)C(=O)O)s2)c1.O=C(O)C(F)(F)F | 2.2 nM |  | 42% | < 0.5 | 29% | 0.34 nM | 0.74 nM | 57% | 97 | 864 | 
4 | N=C(N)Nc1ccc(-c2ccc(C(=O)NC[C@H](NS(=O)(=O)c3ccccc3)C(=O)O)s2)cc1 | 71.5 nM |  |  | < 0.1 |  | 0.0013 nM | 3790 nM |  |  |  | 
5 | Cc1cc(C)c(S(=O)(=O)N[C@@H](CNC(=O)c2ccc(-c3cccc(NC(=N)N)c3)s2)C(=O)O)c(C)c1 | 1.4 nM | 26 nM |  | 300 |  | 0.31 nM | 0.00092 nM |  | 2720 | 28300 | 2.5 nM
6 | N=C(N)NCc1ccccc1-c1ccc(C(=O)NC[C@H](NS(=O)(=O)c2ccccc2)C(=O)O)s1 | 0.04 nM |  |  | < 0.1 |  | 0.0058 nM | 21 nM |  |  |  | 
7 | N=C(N)NCc1ccc(-c2ccc(C(=O)NC[C@H](NS(=O)(=O)c3ccccc3)C(=O)O)s2)cc1 | 2.1 nM |  |  | < 0.1 |  | 6.1 nM | 730 nM |  |  |  | 
8 | Cc1cc(C)c(S(=O)(=O)N[C@@H](CNC(=O)c2ccc(-c3cccc(CN=C(N)N)c3)s2)C(=O)O)c(C)c1.O=C(O)C(F)(F)F | 3.4 nM |  | 91% | < 0.1 | 65% | 0.16 nM | 11 nM | 95% | 1 | 6 | 
